Laboratory results from patent US20060264388A1, “Method for treating liver cancer by intrahepatic administration of nemorubicin” (priority 2003, published 2006).

Columns and labels:
[1] = tested on: patients with liver cancer; test: Hematological toxicity - Platelets, worst CTC Grade by cycle, intrahepatic artery nemorubicin q8wk vs q6wk; format: in vivo, human
Experimental: (§1) The objective of the study was to shorten the time interval between treatment administrations from every 8 weeks (q8wk) of the protocol as reported in WO 00/15203 to every 6 weeks (q6wk). This was done in the attempt of improving the therapeutic potential of nemorubicin treatment through an increase of the dose intensity of the therapy, simultaneously safeguarding patient safety.
(§2) Overall, 13 patients were treated with the q8wk schedule (total 25 cycles administered; doses ranged from 200 to 800 mcg/m^2), and 11 patients were treated with the q6wk schedule (total 32 cycles administered; doses were 200 and 600 mcg/m^2).
(§3) The NCI-Common Tosicity Criteria grading system (CTC Grade), Version 2.0, was used to report toxicities.
(§4) A slight cumulative effect (i.e., increase in frequency but not in severity) was observed after repeated cycles for leucopenia and neutropenia (Tables 2 and 3), mainly with the q8wk schedule.

[2] = tested on: liver metastases from M5076 murine; conditions: M5076 murine reticulosarcoma; cited from earlier work
[3] = tested on: liver metastases from M5076 murine fibrosarcoma; conditions: cited from earlier work
tumor cells = conditions: mouse, rat and human liver microsomes; cited from earlier work
[4] = tested on: patients with liver cancer; test: Hematological toxicity - Neutrophils, worst CTC Grade by cycle, intrahepatic artery nemorubicin q8wk vs q6wk; format: in vivo, human
Experimental: as §1, §2, §3, §4

[5] = 200 mcg/m^2 q8wk, All cycles, 5 evaluable cycles
[6] = 200 mcg/m^2 q8wk, Cycle 1, 3 evaluable cycles
[7] = 200 mcg/m^2 q8wk, Cycles > 1, 2 evaluable cycles
[8] = 400 mcg/m^2 q8wk, All cycles, 4 evaluable cycles
[9] = 400 mcg/m^2 q8wk, Cycle 1, 3 evaluable cycles
[10] = 600 mcg/m^2 q6wk, All cycles, 18 evaluable cycles
[11] = 600 mcg/m^2 q6wk, Cycle 1, 6 evaluable cycles
[12] = 600 mcg/m^2 q6wk, Cycles > 1, 12 evaluable cycles
[13] = 600 mcg/m^2 q8wk, All cycles, 8 evaluable cycles
[14] = 600 mcg/m^2 q8wk, Cycle 1, 4 evaluable cycles
[15] = 600 mcg/m^2 q8wk, Cycles > 1, 4 evaluable cycles
[16] = 800 mcg/m^2 q8wk, All cycles, 3 evaluable cycles
[17] = 800 mcg/m^2 q8wk, Cycle 1, 3 evaluable cycles
[18] = 200 mcg/m^2 q6wk, All cycles, 11 evaluable cycles
[19] = 200 mcg/m^2 q6wk, Cycle 1, 5 evaluable cycles
[20] = 200 mcg/m^2 q6wk, Cycles > 1, 6 evaluable cycles
[21] = 800 mcg/m^2 q8wk, All cycles, 4 evaluable cycles

Compound: COc1cccc2c1C(=O)c1c(O)c3c(c(O)c1C2=O)C[C@@](O)(C(=O)CO)C[C@@H]3O[C@H]1C[C@H](N2CCO[C@H](OC)C2)[C@H](O)[C@H](C)O1.Cl [nemorubicin, 3′desamino-3′[2(S)methoxy-4-morpholinyl]doxorubicin-hydrochloride]
- Platelets, worst CTC Grade by cycle: Grade 1-2 (%) [1, 5]: 5 (100%) (%)
- Platelets, worst CTC Grade by cycle: All Grades (%) [1, 6]: 3 (100%) (%)
- Platelets, worst CTC Grade by cycle: Grade 1-2 (%) [1, 6]: 3 (100%) (%)
- Platelets, worst CTC Grade by cycle: All Grades (%) [1, 7]: 2 (100%) (%)
- Platelets, worst CTC Grade by cycle: Grade 1-2 (%) [1, 7]: 2 (100%) (%)
- Platelets, worst CTC Grade by cycle: All Grades (%) [1, 8]: 1 (25%) (%)
- Platelets, worst CTC Grade by cycle: Grade 1-2 (%) [1, 8]: 1 (25%) (%)
- Platelets, worst CTC Grade by cycle: All Grades (%) [1, 9]: 1 (33%) (%)
- Platelets, worst CTC Grade by cycle: Grade 1-2 (%) [1, 9]: 1 (33%) (%)
- Platelets, worst CTC Grade by cycle: All Grades (%) [1, 10]: 17 (94%) (%)
- Platelets, worst CTC Grade by cycle: Grade 1-2 (%) [1, 10]: 17 (94%) (%)
- Platelets, worst CTC Grade by cycle: All Grades (%) [1, 11]: 6 (100%) (%)
- Platelets, worst CTC Grade by cycle: Grade 1-2 (%) [1, 11]: 6 (100%) (%)
- Platelets, worst CTC Grade by cycle: All Grades (%) [1, 12]: 11 (92%) (%)
- Platelets, worst CTC Grade by cycle: Grade 1-2 (%) [1, 12]: 11 (92%) (%)
- Platelets, worst CTC Grade by cycle: All Grades (%) [1, 13]: 8 (100%) (%)
- Platelets, worst CTC Grade by cycle: Grade 1-2 (%) [1, 13]: 7 (87%) (%)
- Platelets, worst CTC Grade by cycle: Grade 3 (%) [1, 13]: 1 (12%) (%)
- Platelets, worst CTC Grade by cycle: All Grades (%) [1, 14]: 4 (100%) (%)
- Platelets, worst CTC Grade by cycle: Grade 1-2 (%) [1, 14]: 4 (100%) (%)
- Platelets, worst CTC Grade by cycle: All Grades (%) [1, 15]: 4 (100%) (%)
- Platelets, worst CTC Grade by cycle: Grade 1-2 (%) [1, 15]: 3 (75%) (%)
- Platelets, worst CTC Grade by cycle: Grade 3 (%) [1, 15]: 1 (25%) (%)
- Platelets, worst CTC Grade by cycle: All Grades (%) [1, 16]: 2 (67%) (%)
- Platelets, worst CTC Grade by cycle: Grade 1-2 (%) [1, 16]: 2 (67%) (%)
- Platelets, worst CTC Grade by cycle: All Grades (%) [1, 17]: 2 (67%) (%)
- Platelets, worst CTC Grade by cycle: Grade 1-2 (%) [1, 17]: 2 (67%) (%)
- thrombocytopenia, maximum severity (CTC Grade) ([1]; only one patient treated at 600 mcg/m^2 q8wk after repeated cycles): Grade 3
- activity against liver metastases, oral versus i.v. [2]: higher after oral administration as compared to the i.v. route
- efficacy on liver metastases versus solid primary ([3]; administered orally): more effective on the liver metastases than on the solid primary
- efficacy relative to oral formulation ([3]; injectable formulation): less effective
- best result on survival ([3]; oral formulation, administered daily for 5 days): doubling of survival time
- cytotoxic activity in vitro in the presence of liver microsomes (tumor cells): increased
- Neutrophils, worst CTC Grade by cycle: All Grades (%) [4, 18]: 4 (36%) (%)
- Neutrophils, worst CTC Grade by cycle: Grade 1-2 (%) [4, 18]: 4 (36%) (%)
- Neutrophils, worst CTC Grade by cycle: All Grades (%) [4, 19]: 2 (40%) (%)
- Neutrophils, worst CTC Grade by cycle: Grade 1-2 (%) [4, 19]: 2 (40%) (%)
- Neutrophils, worst CTC Grade by cycle: All Grades (%) [4, 20]: 2 (33%) (%)
- Neutrophils, worst CTC Grade by cycle: Grade 1-2 (%) [4, 20]: 2 (33%) (%)
- Neutrophils, worst CTC Grade by cycle: All Grades (%) [4, 5]: 3 (60%) (%)
- Neutrophils, worst CTC Grade by cycle: Grade 1-2 (%) [4, 5]: 3 (60%) (%)
- Neutrophils, worst CTC Grade by cycle: All Grades (%) [4, 6]: 1 (33%) (%)
- Neutrophils, worst CTC Grade by cycle: Grade 1-2 (%) [4, 6]: 1 (33%) (%)
- Neutrophils, worst CTC Grade by cycle: All Grades (%) [4, 7]: 2 (100%) (%)
- Neutrophils, worst CTC Grade by cycle: Grade 1-2 (%) [4, 7]: 2 (100%) (%)
- Neutrophils, worst CTC Grade by cycle: All Grades (%) [4, 8]: 1 (25%) (%)
- Neutrophils, worst CTC Grade by cycle: Grade 1-2 (%) [4, 8]: 1 (25%) (%)
- Neutrophils, worst CTC Grade by cycle: All Grades (%) [4, 9]: 1 (33%) (%)
- Neutrophils, worst CTC Grade by cycle: Grade 1-2 (%) [4, 9]: 1 (33%) (%)
- Neutrophils, worst CTC Grade by cycle: All Grades (%) [4, 10]: 3 (17%) (%)
- Neutrophils, worst CTC Grade by cycle: Grade 1-2 (%) [4, 10]: 3 (17%) (%)
- Neutrophils, worst CTC Grade by cycle: All Grades (%) [4, 11]: 1 (17%) (%)
- Neutrophils, worst CTC Grade by cycle: Grade 1-2 (%) [4, 11]: 1 (17%) (%)
- Neutrophils, worst CTC Grade by cycle: All Grades (%) [4, 12]: 2 (17%) (%)
- Neutrophils, worst CTC Grade by cycle: Grade 1-2 (%) [4, 12]: 2 (17%) (%)
- Neutrophils, worst CTC Grade by cycle: All Grades (%) [4, 13]: 2 (25%) (%)
- Neutrophils, worst CTC Grade by cycle: Grade 1-2 (%) [4, 13]: 2 (25%) (%)
- Neutrophils, worst CTC Grade by cycle: All Grades (%) [4, 15]: 2 (50%) (%)
- Neutrophils, worst CTC Grade by cycle: Grade 1-2 (%) [4, 15]: 2 (50%) (%)
- Neutrophils, worst CTC Grade by cycle: All Grades (%) [4, 21]: 1 (25%) (%)
- Neutrophils, worst CTC Grade by cycle: Grade 1-2 (%) [4, 21]: 1 (25%) (%)
- Neutrophils, worst CTC Grade by cycle: All Grades (%) [4, 17]: 1 (33%) (%)
- Neutrophils, worst CTC Grade by cycle: Grade 1-2 (%) [4, 17]: 1 (33%) (%)
